Results as given in US6376510B1, “Neuromuscular relaxants” (Newlaxant LLC, priority 1997, dated 2002).
Where two headings read alike, the source gives them in different places.

Assays:
[1] = tested on: anesthetized cats (evoked responses of anterior tibial muscle); assay: animal or person; details: for RI (recovery index): spontaneous recovery, 25-75% neuromuscular response; for Onset: time to 80-85% neuromuscular block
Method in brief: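 Adult cats anesthetized i.p. with 70 mg/kg alpha chloralose plus 0.5 g/kg ethylurethane; agents in saline given i.v. Anterior tibial muscle responses to supramaximal single or train-of-four stimuli of sciatic or peroneal nerve recorded electromyographically and mechanomyographically, alongside blood pressure and heart rate.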

anesthetized monkeys = assay: In vivo neuromuscular block and cardiovascular side effects, monkey (Example 8, Table 6); details: for ED50: intravenous dose causing 50% neuromuscular block; for RI (recovery index): spontaneous recovery, 25-75% neuromuscular response; for Onset: time to 80-85% neuromuscular block
Method in brief: (§1)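 Electromyographic and mechanomyographic responses quantified. Monkeys sedated with intramuscular ketamine, then general anesthesia with intravenous pentobarbital and propofol; juvenile pigs induced with inhaled halothane.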

[2] = tested on: anesthetized rats (evoked responses of anterior tibial muscle); assay: In vivo neuromuscular block and cardiovascular side effects, anesthetized rat (Example 8, Table 3); details: for RI (recovery index): spontaneous recovery, 25-75% neuromuscular response; for Onset: time to 80-85% neuromuscular block
Method in brief: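 Pentobarbital-anesthetized (i.p.), ventilated adult male rats given saline-dissolved agents i.v.; anterior tibial EMG responses to supramaximal single or train-of-four sciatic/peroneal stimuli, plus 0.1 or 1 Hz stimulation. Doses for 50%, 80%, 90% block derived. Onset: minutes to 80-85% block; RI: 25-75% spontaneous recovery; vagal block, heart rate and blood pressure changes (%) at 80-85% blocking dose.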

[3] = tested on: anesthetized juvenile pigs; assay: animal or person; type: in vivo; details: pig; for ED50: intravenous dose causing 50% neuromuscular block; for RI (recovery index): spontaneous recovery, 25-75% neuromuscular response; for Onset: time to 80-85% neuromuscular block
Method in brief: as §1

rabbits = assay: In vivo neuromuscular block and cardiovascular side effects, rabbit (Example 8, Table 7); details: for ED50: intravenous dose causing 50% neuromuscular block; for RI (recovery index): spontaneous recovery, 25-75% neuromuscular response; for Onset: time to 80-85% neuromuscular block
dogs = assay: animal or person; type: in vivo; details: dog; for ED50: intravenous dose causing 50% neuromuscular block; for RI (recovery index): spontaneous recovery, 25-75% neuromuscular response; for Onset: time to 80-85% neuromuscular block
[4] = cat, at 80-85% neuromuscular blocking dose
[5] = at 80-85% neuromuscular blocking dose
[6] = rat, at 80-85% neuromuscular blocking dose
[7] = Oryctolagus cuniculus, read-out: ED50
[8] = Canis lupus familiaris, read-out: ED50
[9] = cat, intravenous dose causing 50% neuromuscular block
[10] = rat, intravenous dose causing 50% neuromuscular block

Compound: CC(=O)Oc1ccc(C[N+]2(C)[C@@H]3CC[C@H]2C[C@@H](OC(=O)CCCC(=O)O[C@H]2C[C@H]4CC[C@@H](C2)[N+]4(C)Cc2ccc(OC(C)=O)c(OC(C)=O)c2)C3)cc1OC(C)=O.[Br-].[Br-] (stereo partly drawn) [bis[N-(3,4-diacetoxybenzyl)tropanium-3α-yl]glutarate dibromide]
- ED50 ([1]; Felis catus, iv): 0.183 mg/kg
- VB (vagal block) [1, 4]: 8%
- ΔBP (change in arterial blood pressure) [1, 4]: 0%
- ΔH (change in heart rate) [1, 4]: 0%
- RI (recovery index) ([1]; cat): 0.6 min
- Onset ([1]; cat): 1 min
- ED50 (anesthetized monkeys; Primates, read-out: ED50): 0.088 mg/kg
- ΔBP (change in arterial blood pressure) (anesthetized monkeys; [5]): 0%
- ΔH (change in heart rate) (anesthetized monkeys; [5]): 0%
- RI (recovery index) (anesthetized monkeys): 0.8 min
- Onset (anesthetized monkeys): 1 min
- ED50 ([2]; Rattus norvegicus, iv): 0.232 mg/kg
- VB (vagal block) [2, 6]: 10%
- ΔBP (change in arterial blood pressure) [2, 6]: 0%
- ΔH (change in heart rate) [2, 6]: 0%
- RI (recovery index) ([2]; rat): 0.6 min
- Onset ([2]; rat): 0.75 min
- ED50 ([3]; Sus scrofa, read-out: ED50): 0.23 mg/kg
- VB (vagal block) [3, 5]: 41%
- ΔBP (change in arterial blood pressure) [3, 5]: 0%
- ΔH (change in heart rate) [3, 5]: 0%
- RI (recovery index) [3]: 1.1 min
- Onset [3]: 0.95 min
- ED50 (rabbits; [7]): 0.065 mg/kg
- ΔBP (change in arterial blood pressure) (rabbits; [5]): 0%
- ΔH (change in heart rate) (rabbits; [5]): 0%
- RI (recovery index) (rabbits): 0.7 min
- Onset (rabbits): 0.9 min
- ED50 (dogs; [8]): 0.11 mg/kg
- ΔBP (change in arterial blood pressure) (dogs; [5]): 0%
- ΔH (change in heart rate) (dogs; [5]): 0%
- RI (recovery index) (dogs): 0.6 min
- Onset (dogs): 0.9 min

Compound: CC(=O)Oc1ccc(C[N+]2(C)C3CCCC2CC(OC(=O)C2CCC2C(=O)OC2CC4CCCC(C2)[N+]4(C)Cc2ccc(OC(C)=O)c(OC(C)=O)c2)C3)cc1OC(C)=O.[Br-].[Br-] (centres unmarked) [bis[N-(3,4-diacetoxybenzyl)granataninium-3-yl]cyclobutane-1,2-dicarboxylate dibromide]
- ED50 [1, 9]: 0.4 mg/kg
- RI (recovery index) ([1]; cat): 0.5 min
- Onset ([1]; cat): 0.6 min
- ΔBP (change in arterial blood pressure) ([1]; in vivo): 0%
- ΔH (change in heart rate) ([1]; in vivo): 0%
- ΔBP (change in arterial blood pressure) (anesthetized monkeys; in vivo): 0%
- ΔH (change in heart rate) (anesthetized monkeys; in vivo): 0%
- ED50 (anesthetized monkeys): 0.086 mg/kg
- RI (recovery index) (anesthetized monkeys): 0.4 min
- Onset (anesthetized monkeys): 0.7 min
- VB (vagal block) ([2]; rat, in vivo): 2%
- ΔBP (change in arterial blood pressure) ([2]; rat, in vivo): 0%
- ΔH (change in heart rate) ([2]; rat, in vivo): 0%
- ED50 [2, 10]: 0.133 mg/kg
- RI (recovery index) ([2]; rat): 0.4 min
- Onset ([2]; rat): 0.5 min
- VB (vagal block) ([3]; in vivo): 15%
- ΔBP (change in arterial blood pressure) ([3]; in vivo): 0%
- ΔH (change in heart rate) ([3]; in vivo): 0%
- ED50 [3]: 0.1 mg/kg
- RI (recovery index) [3]: 1 min
- Onset [3]: 0.8 min
- ΔBP (change in arterial blood pressure) (rabbits; in vivo): 0%
- ΔH (change in heart rate) (rabbits; in vivo): 0%
- ED50 (rabbits): 0.115 mg/kg
- RI (recovery index) (rabbits): 0.6 min
- Onset (rabbits): 0.6 min
- ΔBP (change in arterial blood pressure) (dogs; in vivo): −5%
- ΔH (change in heart rate) (dogs; in vivo): 27%
- ED50 (dogs): 0.15 mg/kg
- RI (recovery index) (dogs): 0.7 min
- Onset (dogs): 0.75 min

Compound: CC(=O)Oc1ccc(C[N+]2(C)C3CCCC2CC(OC(=O)CCCCCCC(=O)OC2CC4CCCC(C2)[N+]4(C)Cc2ccc(OC(C)=O)c(OC(C)=O)c2)C3)cc1OC(C)=O.[Br-].[Br-] (centres unmarked) [bis[N-(3,4-diacetoxybenzyl)granataninium-3-yl]suberate dibromide]
- ED50 [1, 9]: 0.7 mg/kg
- RI (recovery index) ([1]; cat): 0.5 min
- Onset ([1]; cat): 0.6 min
- VB (vagal block) ([1]; in vivo): 80%
- ΔBP (change in arterial blood pressure) ([1]; in vivo): −20%
- ΔH (change in heart rate) ([1]; in vivo): 0%
- ΔBP (change in arterial blood pressure) (anesthetized monkeys; in vivo): 0%
- ΔH (change in heart rate) (anesthetized monkeys; in vivo): 0%
- ED50 (anesthetized monkeys): 0.2 mg/kg
- RI (recovery index) (anesthetized monkeys): 0.4 min
- Onset (anesthetized monkeys): 0.9 min
- VB (vagal block) ([2]; rat, in vivo): 60%
- ΔBP (change in arterial blood pressure) ([2]; rat, in vivo): 0%
- ΔH (change in heart rate) ([2]; rat, in vivo): 0%
- ED50 [2, 10]: 0.45 mg/kg
- RI (recovery index) ([2]; rat): 0.35 min
- Onset ([2]; rat): 0.4 min
- VB (vagal block) ([3]; in vivo): 80%
- ΔBP (change in arterial blood pressure) ([3]; in vivo): 0%
- ΔH (change in heart rate) ([3]; in vivo): 0%
- ED50 [3]: 0.25 mg/kg
- RI (recovery index) [3]: 0.8 min
- Onset [3]: 0.6 min
- ΔBP (change in arterial blood pressure) (rabbits; in vivo): 0%
- ΔH (change in heart rate) (rabbits; in vivo): 0%
- ED50 (rabbits): 0.475 mg/kg
- RI (recovery index) (rabbits): 0.55 min
- Onset (rabbits): 0.5 min
- ΔBP (change in arterial blood pressure) (dogs; in vivo): −55%
- ΔH (change in heart rate) (dogs; in vivo): 60%
- ED50 (dogs): 0.25 mg/kg
- RI (recovery index) (dogs): 0.45 min
- Onset (dogs): 0.8 min

Compound: CC(=O)Oc1ccc(C[N+]2(C)[C@@H]3CC[C@H]2C[C@@H](OC(=O)C2CCC2C(=O)O[C@H]2C[C@H]4CC[C@@H](C2)[N+]4(C)Cc2ccc(OC(C)=O)c(OC(C)=O)c2)C3)cc1OC(C)=O.[Br-].[Br-] (stereo partly drawn) [bis[N-(3,4-diacetoxybenzyl)tropanium-3α-yl]cyclobutane-1,2-dicarboxylate dibromide]
- ED50 ([1]; Felis catus, iv): 0.135 mg/kg
- VB (vagal block) [1, 4]: 12%
- ΔBP (change in arterial blood pressure) [1, 4]: 0%
- ΔH (change in heart rate) [1, 4]: 0%
- RI (recovery index) ([1]; cat): 0.5 min
- Onset ([1]; cat): 0.95 min
- ED50 (anesthetized monkeys; Primates, read-out: ED50): 0.054 mg/kg
- ΔBP (change in arterial blood pressure) (anesthetized monkeys; [5]): 0%
- ΔH (change in heart rate) (anesthetized monkeys; [5]): 0%
- RI (recovery index) (anesthetized monkeys): 0.4 min
- Onset (anesthetized monkeys): 0.95 min
- ED50 ([2]; Rattus norvegicus, iv): 0.218 mg/kg
- VB (vagal block) [2, 6]: 5%
- ΔBP (change in arterial blood pressure) [2, 6]: 0%
- ΔH (change in heart rate) [2, 6]: 0%
- RI (recovery index) ([2]; rat): 0.45 min
- Onset ([2]; rat): 0.7 min
- ED50 ([3]; Sus scrofa, read-out: ED50): 0.275 mg/kg
- VB (vagal block) [3, 5]: 42%
- ΔBP (change in arterial blood pressure) [3, 5]: 0%
- ΔH (change in heart rate) [3, 5]: 0%
- RI (recovery index) [3]: 0.85 min
- Onset [3]: 0.68 min
- ED50 (rabbits; [7]): 0.078 mg/kg
- ΔBP (change in arterial blood pressure) (rabbits; [5]): 0%
- ΔH (change in heart rate) (rabbits; [5]): 0%
- RI (recovery index) (rabbits): 0.6 min
- Onset (rabbits): 0.8 min
- ED50 (dogs; [8]): 0.1 mg/kg
- ΔBP (change in arterial blood pressure) (dogs; [5]): −7%
- ΔH (change in heart rate) (dogs; [5]): 10%
- RI (recovery index) (dogs): 0.65 min
- Onset (dogs): 0.9 min
